Source: patent US8703961B2, “Thiazole derivatives for the treatment of diseases such as cancer” (Merck Patent GmbH, priority 2009, dated 2014)

Key:
Assay in all cases: filter binding kinase assay
Type in all cases: biochemical
[1] = biological target: T1, IRAK4 (Homo sapiens, UniProt Q9NWZ3); settings: derived from % inhibition at 1 μM
T1 construct: purchased
T1 sequence (Q9NWZ3 1-460): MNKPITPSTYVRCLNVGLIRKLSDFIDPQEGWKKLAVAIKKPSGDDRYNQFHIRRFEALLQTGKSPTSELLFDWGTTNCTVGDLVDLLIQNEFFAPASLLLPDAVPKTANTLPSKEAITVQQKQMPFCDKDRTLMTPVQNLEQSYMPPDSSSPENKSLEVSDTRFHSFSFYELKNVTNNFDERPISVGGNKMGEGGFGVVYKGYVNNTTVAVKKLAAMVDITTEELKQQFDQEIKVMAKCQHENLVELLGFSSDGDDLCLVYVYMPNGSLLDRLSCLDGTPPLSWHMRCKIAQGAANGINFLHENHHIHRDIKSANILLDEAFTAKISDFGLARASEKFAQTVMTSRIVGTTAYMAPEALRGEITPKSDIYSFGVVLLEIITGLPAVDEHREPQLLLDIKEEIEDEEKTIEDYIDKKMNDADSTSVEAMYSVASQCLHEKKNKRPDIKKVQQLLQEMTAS
Summary of the method: (§1)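 Kinase activity is measured at room temperature by filter binding, with incorporated radiolabel counted after acid termination. A 5-minute preincubation of compound, enzyme and substrate precedes addition of ATP from a kinase-dependent stock (5, 20 or 50 […]).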

[2] = biological target: T2, IKBKE (Homo sapiens, UniProt Q14164); settings: derived from % inhibition at 1 μM
T2 construct: purchased
T2 sequence (Q14164 1-716): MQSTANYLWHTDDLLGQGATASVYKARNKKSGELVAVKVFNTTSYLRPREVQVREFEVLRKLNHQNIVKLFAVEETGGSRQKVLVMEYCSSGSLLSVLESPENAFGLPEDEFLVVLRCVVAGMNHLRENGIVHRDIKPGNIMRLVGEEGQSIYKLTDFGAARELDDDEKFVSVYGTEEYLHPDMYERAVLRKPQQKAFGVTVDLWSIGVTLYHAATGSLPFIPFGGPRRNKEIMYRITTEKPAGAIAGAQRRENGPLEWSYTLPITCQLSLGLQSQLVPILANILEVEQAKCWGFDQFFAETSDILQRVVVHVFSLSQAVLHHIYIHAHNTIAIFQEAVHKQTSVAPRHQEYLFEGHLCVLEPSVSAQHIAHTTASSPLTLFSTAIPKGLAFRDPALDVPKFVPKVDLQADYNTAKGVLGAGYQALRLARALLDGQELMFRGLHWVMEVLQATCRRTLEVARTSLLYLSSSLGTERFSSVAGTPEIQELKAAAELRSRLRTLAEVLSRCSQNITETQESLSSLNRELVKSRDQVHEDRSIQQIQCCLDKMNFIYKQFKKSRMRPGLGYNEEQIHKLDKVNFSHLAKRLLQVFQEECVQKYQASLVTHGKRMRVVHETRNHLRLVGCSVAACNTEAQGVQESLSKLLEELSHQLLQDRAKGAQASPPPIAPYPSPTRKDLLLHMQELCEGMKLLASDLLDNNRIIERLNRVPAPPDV
Summary of the method: as §1

[3] = biological target: T3, PIM3 (Homo sapiens, UniProt Q86V86); settings: derived from % inhibition at 1 μM
T3 construct: purchased
Summary of the method: as §1

[4] = biological target: T4, MAP3K11 (MLK3) (Homo sapiens, UniProt Q16584); settings: for IC50: derived from % inhibition at 1 μM
T4 construct: purchased
T4 sequence (Q16584 whole entry, species assumed): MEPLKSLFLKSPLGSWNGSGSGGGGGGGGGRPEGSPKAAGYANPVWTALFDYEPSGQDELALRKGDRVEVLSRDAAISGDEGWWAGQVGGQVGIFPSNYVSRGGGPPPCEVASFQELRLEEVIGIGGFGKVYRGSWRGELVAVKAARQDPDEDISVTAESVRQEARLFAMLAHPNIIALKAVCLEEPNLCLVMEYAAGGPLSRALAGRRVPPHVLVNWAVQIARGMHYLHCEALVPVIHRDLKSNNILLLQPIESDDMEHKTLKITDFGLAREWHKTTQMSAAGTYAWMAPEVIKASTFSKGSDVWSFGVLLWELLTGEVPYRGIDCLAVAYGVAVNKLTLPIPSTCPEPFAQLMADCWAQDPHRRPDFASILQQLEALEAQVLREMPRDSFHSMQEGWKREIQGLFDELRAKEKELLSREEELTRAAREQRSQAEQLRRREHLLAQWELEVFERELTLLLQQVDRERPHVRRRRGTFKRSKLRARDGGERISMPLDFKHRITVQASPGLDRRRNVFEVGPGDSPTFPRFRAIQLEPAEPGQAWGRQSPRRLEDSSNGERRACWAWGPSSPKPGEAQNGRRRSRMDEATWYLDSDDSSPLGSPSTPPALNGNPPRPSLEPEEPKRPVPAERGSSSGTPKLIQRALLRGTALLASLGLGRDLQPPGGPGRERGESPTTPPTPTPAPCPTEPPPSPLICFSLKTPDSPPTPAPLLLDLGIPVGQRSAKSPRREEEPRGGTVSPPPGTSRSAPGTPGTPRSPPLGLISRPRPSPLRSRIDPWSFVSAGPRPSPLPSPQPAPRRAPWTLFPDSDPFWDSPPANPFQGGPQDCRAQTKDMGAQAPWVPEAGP
Summary of the method: as §1

[5] = biological target: T5, DYRK3 (Homo sapiens, UniProt O43781); settings: derived from % inhibition at 1 μM
T5 construct: purchased
T5 sequence (O43781 1-588): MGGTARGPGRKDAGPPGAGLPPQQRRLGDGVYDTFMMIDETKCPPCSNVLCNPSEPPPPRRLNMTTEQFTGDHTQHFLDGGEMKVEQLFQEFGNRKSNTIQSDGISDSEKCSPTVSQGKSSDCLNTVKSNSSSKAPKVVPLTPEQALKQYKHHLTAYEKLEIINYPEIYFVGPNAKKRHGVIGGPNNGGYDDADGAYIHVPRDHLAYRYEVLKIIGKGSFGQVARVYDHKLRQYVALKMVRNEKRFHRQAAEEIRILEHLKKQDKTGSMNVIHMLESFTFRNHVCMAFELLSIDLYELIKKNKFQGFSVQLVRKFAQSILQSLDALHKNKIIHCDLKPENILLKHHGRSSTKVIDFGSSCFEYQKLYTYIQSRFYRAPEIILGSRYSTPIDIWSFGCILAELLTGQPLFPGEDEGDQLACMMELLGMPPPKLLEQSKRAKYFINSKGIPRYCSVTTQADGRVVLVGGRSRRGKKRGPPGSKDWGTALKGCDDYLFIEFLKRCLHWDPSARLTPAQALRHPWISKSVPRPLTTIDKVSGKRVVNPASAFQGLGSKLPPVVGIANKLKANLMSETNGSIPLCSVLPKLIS
Summary of the method: as §1

[6] = biological target: T6, HIPK2 (Homo sapiens, UniProt Q9H2X6); settings: for IC50: derived from % inhibition at 1 μM
T6 construct: purchased
T6 sequence (Q9H2X6 whole entry, species assumed): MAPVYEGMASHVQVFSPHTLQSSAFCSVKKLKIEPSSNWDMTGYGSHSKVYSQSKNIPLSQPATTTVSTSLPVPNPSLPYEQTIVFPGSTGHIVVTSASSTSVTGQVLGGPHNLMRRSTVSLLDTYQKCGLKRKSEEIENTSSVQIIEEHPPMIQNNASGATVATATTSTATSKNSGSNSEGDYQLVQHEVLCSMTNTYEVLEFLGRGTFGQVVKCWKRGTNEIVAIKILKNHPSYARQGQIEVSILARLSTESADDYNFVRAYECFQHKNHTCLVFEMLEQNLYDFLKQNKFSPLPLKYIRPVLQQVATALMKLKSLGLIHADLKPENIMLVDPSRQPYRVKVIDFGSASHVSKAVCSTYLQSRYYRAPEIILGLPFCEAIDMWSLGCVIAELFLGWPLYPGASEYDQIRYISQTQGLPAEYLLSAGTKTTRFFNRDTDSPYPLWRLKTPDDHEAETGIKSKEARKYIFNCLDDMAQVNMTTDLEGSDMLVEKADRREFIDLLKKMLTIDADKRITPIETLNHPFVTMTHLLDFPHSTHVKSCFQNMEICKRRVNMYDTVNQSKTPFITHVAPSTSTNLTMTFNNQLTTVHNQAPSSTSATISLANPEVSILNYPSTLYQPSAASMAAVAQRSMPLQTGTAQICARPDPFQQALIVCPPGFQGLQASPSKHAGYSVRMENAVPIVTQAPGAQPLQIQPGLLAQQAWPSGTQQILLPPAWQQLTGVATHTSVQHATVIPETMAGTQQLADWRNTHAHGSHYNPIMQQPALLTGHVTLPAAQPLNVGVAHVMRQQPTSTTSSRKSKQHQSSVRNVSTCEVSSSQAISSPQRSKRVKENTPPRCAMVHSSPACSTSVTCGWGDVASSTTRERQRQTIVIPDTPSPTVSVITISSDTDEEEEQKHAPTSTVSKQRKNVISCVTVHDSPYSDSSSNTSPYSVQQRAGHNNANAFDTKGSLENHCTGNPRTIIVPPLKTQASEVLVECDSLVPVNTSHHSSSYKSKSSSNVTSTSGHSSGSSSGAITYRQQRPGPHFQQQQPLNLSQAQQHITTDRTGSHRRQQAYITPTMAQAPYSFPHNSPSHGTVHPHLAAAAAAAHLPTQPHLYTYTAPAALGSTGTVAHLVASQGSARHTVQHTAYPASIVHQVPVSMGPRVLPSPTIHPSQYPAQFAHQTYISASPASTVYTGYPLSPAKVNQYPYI
Summary of the method: as §1

[7] = biological target: T7, RPS6KA1 (Homo sapiens, UniProt Q15418); settings: derived from % inhibition at 1 μM
T7 construct: purchased
T7 sequence (Q15418 whole entry, species assumed): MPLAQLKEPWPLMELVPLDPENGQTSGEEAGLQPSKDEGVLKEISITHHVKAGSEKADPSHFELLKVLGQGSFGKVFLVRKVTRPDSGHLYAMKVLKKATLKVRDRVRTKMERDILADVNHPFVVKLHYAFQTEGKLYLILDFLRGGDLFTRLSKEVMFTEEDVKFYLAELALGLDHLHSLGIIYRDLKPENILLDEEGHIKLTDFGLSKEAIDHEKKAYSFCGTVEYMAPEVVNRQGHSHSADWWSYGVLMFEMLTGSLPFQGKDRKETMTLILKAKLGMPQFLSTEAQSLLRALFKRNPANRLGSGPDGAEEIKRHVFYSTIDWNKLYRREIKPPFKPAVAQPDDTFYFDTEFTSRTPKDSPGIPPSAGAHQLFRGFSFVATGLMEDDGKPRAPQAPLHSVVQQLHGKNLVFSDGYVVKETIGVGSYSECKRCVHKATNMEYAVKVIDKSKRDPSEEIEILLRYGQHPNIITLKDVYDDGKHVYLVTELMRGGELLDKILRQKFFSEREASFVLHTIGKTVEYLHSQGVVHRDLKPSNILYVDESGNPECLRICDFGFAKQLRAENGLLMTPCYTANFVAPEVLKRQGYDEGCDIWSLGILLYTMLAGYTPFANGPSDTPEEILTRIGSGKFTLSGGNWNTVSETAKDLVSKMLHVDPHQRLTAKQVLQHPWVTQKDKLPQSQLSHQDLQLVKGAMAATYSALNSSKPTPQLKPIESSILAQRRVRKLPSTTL
Summary of the method: as §1

[8] = biological target: T8, MELK (Homo sapiens, UniProt Q14680); settings: derived from % inhibition at 1 μM
T8 construct: purchased
T8 sequence (Q14680 whole entry, species assumed): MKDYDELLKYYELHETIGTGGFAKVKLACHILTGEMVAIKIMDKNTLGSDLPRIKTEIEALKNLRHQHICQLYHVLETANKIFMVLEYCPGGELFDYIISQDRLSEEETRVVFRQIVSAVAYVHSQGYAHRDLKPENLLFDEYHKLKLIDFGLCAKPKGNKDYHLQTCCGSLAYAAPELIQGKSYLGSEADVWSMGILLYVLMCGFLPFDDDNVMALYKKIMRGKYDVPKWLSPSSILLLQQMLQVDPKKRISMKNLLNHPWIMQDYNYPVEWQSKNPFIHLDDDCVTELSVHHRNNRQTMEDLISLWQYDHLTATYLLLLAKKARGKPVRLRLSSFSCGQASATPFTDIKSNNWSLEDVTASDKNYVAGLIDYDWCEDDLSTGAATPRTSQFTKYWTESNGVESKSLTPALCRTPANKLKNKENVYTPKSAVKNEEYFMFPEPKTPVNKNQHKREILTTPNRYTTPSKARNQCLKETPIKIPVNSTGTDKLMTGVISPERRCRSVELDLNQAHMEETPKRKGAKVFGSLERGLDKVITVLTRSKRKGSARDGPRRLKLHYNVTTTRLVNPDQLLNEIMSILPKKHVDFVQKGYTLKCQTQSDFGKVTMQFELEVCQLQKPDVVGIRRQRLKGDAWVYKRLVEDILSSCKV
Summary of the method: as §1

[9] = biological target: T9, EPHA2 (Homo sapiens, UniProt P29317); settings: derived from % inhibition at 1 μM
T9 construct: purchased
Summary of the method: as §1

[10] = biological target: T10, MST4 (Homo sapiens, UniProt Q9P289); settings: derived from % inhibition at 1 μM
T10 construct: purchased
Summary of the method: as §1

[11] = biological target: T11, HIPK1 (Homo sapiens, UniProt Q86Z02); settings: for IC50: derived from % inhibition at 1 μM; for remaining activity at 1 µM: read-out: residual kinase activity HIPK1
T11 construct: purchased
T11 sequence (Q86Z02 whole entry, species assumed): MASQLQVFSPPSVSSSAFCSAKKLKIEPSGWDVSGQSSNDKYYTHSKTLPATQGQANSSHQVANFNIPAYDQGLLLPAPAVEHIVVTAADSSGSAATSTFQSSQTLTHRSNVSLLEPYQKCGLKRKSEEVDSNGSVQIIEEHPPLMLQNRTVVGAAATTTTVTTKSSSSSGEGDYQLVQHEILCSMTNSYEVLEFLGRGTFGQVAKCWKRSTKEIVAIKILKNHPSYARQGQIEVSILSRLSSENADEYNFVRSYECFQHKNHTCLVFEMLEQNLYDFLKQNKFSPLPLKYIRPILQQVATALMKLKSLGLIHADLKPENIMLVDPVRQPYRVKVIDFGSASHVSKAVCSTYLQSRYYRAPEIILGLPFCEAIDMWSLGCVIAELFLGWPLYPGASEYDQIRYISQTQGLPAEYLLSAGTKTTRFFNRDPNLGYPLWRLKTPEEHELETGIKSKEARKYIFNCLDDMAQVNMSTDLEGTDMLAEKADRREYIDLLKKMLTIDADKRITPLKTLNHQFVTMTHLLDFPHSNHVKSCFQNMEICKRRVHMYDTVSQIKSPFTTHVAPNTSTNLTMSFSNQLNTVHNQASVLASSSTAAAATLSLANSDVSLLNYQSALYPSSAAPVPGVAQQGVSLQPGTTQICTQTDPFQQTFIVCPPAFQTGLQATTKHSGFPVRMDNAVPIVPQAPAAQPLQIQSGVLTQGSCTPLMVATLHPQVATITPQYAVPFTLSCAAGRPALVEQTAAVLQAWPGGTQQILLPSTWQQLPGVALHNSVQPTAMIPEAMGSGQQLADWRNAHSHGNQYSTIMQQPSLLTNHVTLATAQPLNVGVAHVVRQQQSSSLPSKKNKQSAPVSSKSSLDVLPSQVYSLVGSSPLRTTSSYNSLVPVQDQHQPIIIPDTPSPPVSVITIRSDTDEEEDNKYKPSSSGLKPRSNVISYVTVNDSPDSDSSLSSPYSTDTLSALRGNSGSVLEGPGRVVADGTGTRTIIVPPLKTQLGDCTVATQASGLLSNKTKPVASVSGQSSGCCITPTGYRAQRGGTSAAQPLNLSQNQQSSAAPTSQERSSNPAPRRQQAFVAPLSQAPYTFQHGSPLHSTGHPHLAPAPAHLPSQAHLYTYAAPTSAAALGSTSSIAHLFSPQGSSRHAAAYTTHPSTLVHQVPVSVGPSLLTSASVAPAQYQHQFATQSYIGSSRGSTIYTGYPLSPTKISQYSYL
Summary of the method: as §1

SMILES | IC50 [1] | IC50 [2] | IC50 [3] | IC50 [4] | IC50 [5] | IC50 [6] | IC50 [7] | IC50 [8] | IC50 [9] | IC50 [10] | IC50 [11] | remaining activity at 1 µM ([4]; read-out: residual kinase activity MLK3) | remaining activity at 1 µM ([6]; read-out: residual kinase activity HIPK2) | remaining activity at 1 µM [11]
c1ccc(Cc2c[nH]c3ncsc23)cc1 [Compound A7, 6-benzyl-4H-pyrrolo[2,3-d]thiazole] | > 1000 nM | 10000 to 100000 nM | 1000 to 10000 nM | 10000 to 100000 nM | 10000 to 100000 nM | > 1000 nM | 10000 to 100000 nM | 1000 to 10000 nM | 10000 to 100000 nM | > 1000 nM | > 1000 nM |  |  | 
Nc1ncsc1C#Cc1cnc2[nH]ccc2c1 [Compound A22, 5-(1H-pyrrolo[2,3-b]pyridin-5-ylethynyl)thiazol-4-ylamine] | > 1000 nM | > 1000 nM | 10000 to 100000 nM | 10 to 1000 nM | 10000 to 100000 nM | 10 to 1000 nM | > 1000 nM | > 1000 nM | > 1000 nM | 1000 to 10000 nM | 10 to 1000 nM | 23% | 44% | 36%
CC(C)(C)OC(=O)Nc1nc(-c2ccncc2)sc1C#CCN1CCOCC1 [Compound A25, tert-butyl[5-(3-morpholin-4-ylprop-1-ynyl)-2-pyridin-4-ylthiazol-4-yl]-carbamate] | 10000 to 100000 nM | 1000 to 10000 nM | > 1000 nM | > 1000 nM | 10000 to 100000 nM | > 1000 nM | 10000 to 100000 nM | > 1000 nM | > 1000 nM | > 1000 nM | 10 to 1000 nM |  |  | 48%
CC(C)(C)OC(=O)Nc1ncsc1C#CCN1C(=O)c2ccccc2C1=O [Compound A26, tert-butyl{5-[3-(1,3-dioxo-1,3-dihydroisoindol-2-yl)prop-1-ynyl]-thiazol-4-yl}carbamate] | 10000 to 100000 nM | 10000 to 100000 nM | > 1000 nM | 1000 to 10000 nM | 1000 to 10000 nM | 1000 to 10000 nM | > 1000 nM | > 1000 nM | > 1000 nM | 10000 to 100000 nM | > 1000 nM |  |  | 
Nc1ncsc1C#Cc1cccc(O)c1 [Compound A27, 3-(4-aminothiazol-5-ylethynyl)phenol] | 10000 to 100000 nM | > 1000 nM | 1000 to 10000 nM | 10000 to 100000 nM | 10000 to 100000 nM | > 1000 nM | > 1000 nM | 1000 to 10000 nM | > 1000 nM | > 1000 nM | 1000 to 10000 nM |  |  | 
